Results on four compounds are retold here after patent publication US20090142337A1, “Pharmaceutical Combinations of Diazole Derivatives for Cancer Treatment” (Astex Therapeutics Limited, priority 2006, published 2009).

pIC50: −log10 of the molar value.

Data set [1] can be described thus: Determination of oral bioavailability. Type of data set: in vivo, balb/c mice. As to conditions: mice, oral route (5 mg/kg PO vs 1 mg/kg IV). The procedure:
The oral bioavailability of the compounds for use in the combinations of the invention may be determined as follows.
The test compound is administered as a solution both I.V. and orally to balb/c mice at the following dose level and dose formulations; • 1 mg/kg IV formulated in 10% DMSO/90% (2-hydroxypropyl)-β-cyclodextrin (25% w/v); and • 5 mg/kg PO formulated in 10% DMSO/20% water/70% PEG200.
At various time points after dosing, blood samples are taken in heparinised tubes and the plasma fraction is collected for analysis. The analysis is undertaken by LC-MS/MS after protein precipitation and the samples are quantified by comparison with a standard calibration line constructed for the test compound. The area under the curve (AUC) is calculated from the plasma level vs time profile by standard methods. The oral bioavailability as a percentage is calculated from the following equation: […]

For a further data set, the system named is HCT-116 cell line. Kind of data set: Anti-proliferative activity (Alamar Blue assay). Type of data set: cell-based, human. As to conditions: for pIC50: Homo sapiens, HCT-116, read-out: HCT-116 cell proliferation IC50. As for the experimental part:
The anti-proliferative activities of compounds for use in the combinations of the invention can be determined by measuring the ability of the compounds to inhibition of cell growth in a number of cell lines. […] The method is based on the ability of viable cells to reduce resazurin to its fluorescent product resorufin. […] The number of viable cells is determined by Alamar Blue assay as before. Cell lines can be obtained from the ECACC (European Collection of cell Cultures).

Data set [2] is described as follows: Vapour sorption/desorption analysis. It is filed as physicochemical. As to conditions: 0 to 90% RH stepwise, 25 °C, total upon equilibration at 90% RH. The procedure:
Crystals of 4-(2,6-dichlorobenzoylamino)-1H-pyrazole-3-carboxylic acid (1-methanesulphonyl-piperidin-4-yl)-amide prepared by the recrystallisation method of Example 5 Step 8 were subjected to vapour sorption/desorption analysis in order to test for the propensity of this sample to form a hydrated state.
Approximately 20 mg of sample was placed into a wire-mesh vapour sorption balance pan and loaded into an ‘IgaSorp’ vapour sorption balance (Hiden Analytical Instruments) held at 25+/−0.1° C. The sample was then dried by maintaining a 0% humidity environment (using mass flow control apparatus) until no further weight change was recorded. Subsequently, the sample was then subjected to a ramping profile from 0-90% relative humidity (% RH) at 10% RH increments, maintaining the sample at each step until equilibration had been attained (99.5% step completion).
Upon reaching equilibration, the % RH within the apparatus was ramped to the next step and the equilibration procedure repeated. After completion of the sorption cycle, the sample was then dried using the same procedure. The weight change during the sorption/desorption cycles was then monitored, allowing for the hygroscopic nature of the sample to be determined.

Data set [3] has as its system human tumour derived cell lines. Kind of data set: Xenograft studies. It is filed as in vivo, nude mice. As to conditions: dosed orally. From the text:
These biomarkers include suppression of phosphorylation of substrates of the cyclin dependent kinases e.g. retinoblastoma protein.

In the next data set the test system is PKG. As to conditions: cited from earlier work.
The target in a further data set is PKA (Homo sapiens, UniProt P17612). As to conditions: cited from earlier work.
For a further data set, the system named is OVCAR-3 tumour cells. As to conditions: concentrations of 50 and 100 microM; cited from earlier work.
The subject of another data set is CML patients. As to conditions: CML blast phase; cited from earlier work.
The target of the next data set is CDK2/CyclinA (Homo sapiens, UniProt P24941). Kind of data set: Activated CDK2/CyclinA kinase inhibitory activity assay. It is filed as biochemical. As for the experimental part: The reaction is allowed to proceed for 2 to 4 hours before being stopped with an excess of ortho-phosphoric acid (5 μl at 2%). γ^33P-ATP which remains unincorporated into the histone H1 is separated from phosphorylated histone H1 on a Millipore MAPH filter plate. The wells of the MAPH plate are wetted with 0.5% orthophosphoric acid, and then the results of the reaction are filtered with a Millipore vacuum filtration unit through the wells. Following filtration, the residue is washed twice with 200 μl of 0.5% orthophosphoric acid. Once the filters have dried, 20 μl of Microscint 20 scintillant is added, and then counted on a Packard Topcount for 30 seconds.

In the case of `CS(=O)(=O)N1CCC(NC(=O)c2n[nH]cc2NC(=O)c2c(Cl)cccc2Cl)CC1` [Example 1, 4-(2,6-dichloro-benzoylamino)-1H-pyrazole-3-carboxylic acid (1-methanesulphonyl-piperidin-4-yl)-amide], in data set [1] (balb/c, mouse, plasma, oral, 5 mg/kg), the bioavailability was 40 to 50%. In [1], the oral bioavailability is on record as 30-100%. In the data set on HCT-116 cell line, the “more potent anti-proliferative effect on human colon cancer HCT-116 cell line compared to difluoro-analogue” value is given as 6-7 fold and the pIC50 was 6.96. Moreover, the “weight increase on vapour sorption” value in [2] came to 0.24%. Further, in data set [3], the “tumour biomarkers (phosphorylation of CDK substrates e.g. retinoblastoma protein)” value is “inhibition of the tumour biomarkers”. The “tumour growth in xenografts” value in [3] (xenografts implanted sub-cutaneously) is recorded as “inhibition of tumour growth”.

For the compound `O=S(=O)(NCCNCC=C(c1ccccc1)c1ccccc1)c1cccc2cnccc12` [NL-71-101], the pIC50 in the data set with PKG is 4.44; at PKA, 5.05. Besides, the “apoptosis in OVCAR-3 tumour cells” value in the data set on OVCAR-3 tumour cells was “induced apoptosis”.

`Cc1ccc(NC(=O)c2ccc(CN3CCN(C)CC3)cc2)cc1Nc1nccc(-c2cccnc2)n1` [imatinib]: in the data set on CML patients, the duration of remissions is recorded as 2-6 months.

Turning to `CS(=O)(=O)N1CCC(NC(=O)c2n[nH]cc2NC(=O)c2c(F)cccc2F)CC1` [reference compound], the pIC50 in the data set on HCT-116 cell line is 6.13. The “selectivity for CDK inhibition over GSK3β” value on CDK2/CyclinA was about 6 fold.
